System: ED cells (E. derm NBM-6, ATCC CCL-57)
Test: cell viability (ATP, CellTiter-Glo) relative to untreated control (fraction of control); higher = less cytotoxic

Cc1cc(C#N)cc(C)c1Oc1nc(Nc2ccc(C#N)cc2)nc(N)c1Br [etravirine]
cell viability
Details | 0.5 µM | 2 µM | 5 µM | 10 µM | 25 µM | 50 µM | 80 µM | 100 µM | 200 µM | 300 µM
incubation time: 1h | 1.03 | 1.02 | 0.959 | 0.693 | 0.424 | 0.372 | 0.346 | 0.329 | 0.328 | 0.322
incubation time: 24h | 1.06 | 1.02 | 1.04 | 0.986 | 0.866 | 0.817 | 0.679 | 0.674 | 0.413 | 0.249
incubation time: 72h | 1.01 | 0.978 | 0.953 | 0.894 | 0.829 | 0.796 | 0.75 | 0.723 | 0.541 | 0.412
incubation time: 144h | 1 | 0.994 | 0.97 | 0.927 | 0.871 | 0.835 | 0.784 | 0.775 | 0.626 | 0.525

CC(C)CN(C[C@@H](OP(=O)(O)O)[C@H](Cc1ccccc1)NC(=O)O[C@H]1CCOC1)S(=O)(=O)c1ccc(N)cc1 [fosamprenavir]
cell viability
Details | 0.03 µM | 0.06 µM | 0.125 µM | 0.25 µM | 0.5 µM | 2 µM | 5 µM | 10 µM | 20 µM | 32 µM
incubation time: 1h | 1.1 | 1.13 | 1.11 | 1.11 | 1.11 | 1.1 | 1.1 | 1.11 | 1.1 | 1.08
incubation time: 24h | 1.01 | 1.01 | 1.01 | 1 | 0.994 | 1 | 0.979 | 0.978 | 0.978 | 0.949
incubation time: 72h | 1.08 | 1.08 | 1.08 | 1.08 | 1.08 | 1.08 | 1.04 | 1.03 | 1 | 0.953
incubation time: 144h | 1.02 | 1.04 | 1.04 | 1.06 | 1.05 | 1.05 | 1.04 | 1.02 | 0.993 | 0.957

Nc1ccn([C@@H]2CS[C@H](CO)O2)c(=O)n1 [lamivudine]
cell viability
Details | 0.5 µM | 2 µM | 5 µM | 10 µM | 20 µM | 40 µM | 50 µM | 75 µM | 100 µM | 150 µM
incubation time: 1h | 1.04 | 1.02 | 1.03 | 1.03 | 1.02 | 1.01 | 1.01 | 1.02 | 0.997 | 0.979
incubation time: 24h | 1.02 | 1.03 | 1.03 | 1.03 | 1.03 | 1.03 | 1.02 | 1.03 | 1.03 | 1.04
incubation time: 72h | 1.03 | 1.04 | 1.05 | 1.04 | 1.06 | 1.05 | 1.04 | 1.04 | 1.04 | 1.02
incubation time: 144h | 1.03 | 1.03 | 1.04 | 1.04 | 1.04 | 1.04 | 1.03 | 1.04 | 1.03 | 1

Cc1ccnc2c1NC(=O)c1cccnc1N2C1CC1 [nevirapine]
cell viability
Details | 0.5 µM | 2 µM | 5 µM | 10 µM | 25 µM | 50 µM | 80 µM | 100 µM | 200 µM | 300 µM
incubation time: 1h | 1.05 | 1.04 | 1.05 | 1.05 | 1.05 | 1.04 | 1.05 | 1.04 | 1.05 | 1.04
incubation time: 24h | 1.06 | 1.06 | 1.07 | 1.07 | 1.08 | 1.09 | 1.06 | 1.08 | 1.05 | 1.04
incubation time: 72h | 1.04 | 1.05 | 1.07 | 1.07 | 1.06 | 1.06 | 1.03 | 1.02 | 0.958 | 0.924
incubation time: 144h | 1 | 1.02 | 1.02 | 1.03 | 1.02 | 0.989 | 0.962 | 0.961 | 0.886 | 0.848

Cc1nnc(C(=O)NC(C)(C)c2nc(C(=O)NCc3ccc(F)cc3)c(O)c(=O)n2C)o1 [raltegravir]
cell viability
Details | 0.5 µM | 2 µM | 5 µM | 10 µM | 25 µM | 50 µM | 80 µM | 100 µM | 200 µM | 300 µM
incubation time: 1h | 1.07 | 1.07 | 1.07 | 1.08 | 1.07 | 1.06 | 1.05 | 1.07 | 1.06 | 1.06
incubation time: 24h | 1.02 | 1.02 | 1.02 | 1.03 | 1.02 | 1.01 | 0.983 | 0.999 | 0.982 | 0.963
incubation time: 72h | 1.03 | 1.05 | 1.04 | 1.04 | 1.04 | 1.05 | 1.01 | 1.02 | 0.992 | 0.963
incubation time: 144h | 0.994 | 0.999 | 1.03 | 1.03 | 1.04 | 1.04 | 1.03 | 1.02 | 0.991 | 0.955

CC(C)c1nc(CN(C)C(=O)N[C@H](C(=O)N[C@@H](Cc2ccccc2)C[C@H](O)[C@H](Cc2ccccc2)NC(=O)OCc2cncs2)C(C)C)cs1 [ritonavir]
cell viability
Details | 0.5 µM | 2 µM | 5 µM | 10 µM | 25 µM | 50 µM | 80 µM | 100 µM | 200 µM | 300 µM
incubation time: 1h | 1.05 | 1.05 | 1.05 | 1.03 | 1 | 0.976 | 0.899 | 0.879 | 0.881 | 0.887
incubation time: 24h | 1.03 | 0.991 | 0.964 | 0.922 | 0.886 | 0.834 | 0.426 | 0.372 | 0.363 | 0.363
incubation time: 72h | 1.01 | 0.949 | 0.868 | 0.81 | 0.763 | 0.686 | 0.00794 | 0.00652 | 0.00418 | 0.00806
incubation time: 144h | 1 | 0.966 | 0.901 | 0.854 | 0.788 | 0.703 | 0.0753 | 0.0037 | 0.00476 | 0.00437

CC(C)(C)NC(=O)[C@@H]1C[C@@H]2CCCC[C@@H]2CN1C[C@@H](O)[C@H](Cc1ccccc1)NC(=O)[C@H](CC(N)=O)NC(=O)c1ccc2ccccc2n1 [saquinavir]
cell viability
Details | 0.25 µM | 0.5 µM | 2 µM | 5 µM | 10 µM | 20 µM | 25 µM | 30 µM | 50 µM | 65 µM
incubation time: 1h | 1.03 | 1.04 | 1.03 | 1.04 | 1.03 | 1 | 1.01 | 1.02 | 0.958 | 0.868
incubation time: 24h | 0.995 | 1.01 | 1 | 0.992 | 0.955 | 0.896 | 0.872 | 0.868 | 0.75 | 0.583
incubation time: 72h | 1.04 | 1.03 | 1.01 | 0.956 | 0.904 | 0.798 | 0.753 | 0.687 | 0.306 | 0.0705
incubation time: 144h | 1.02 | 1.02 | 1 | 0.951 | 0.922 | 0.808 | 0.743 | 0.699 | 0.201 | 0.0214

— the supplement of paper PMC11699113
